Laboratory results published in patent publication US10098347B2, “Methods of improving growth and stress tolerance in plants” (Valent BioSciences LLC, priority 2016, dated 2018).

What was measured:
Type in all cases: in vivo
[1] = tested on: Cucumber (Cucumis sativa var. Straight Eight); experiment: Post-chilling damage in cucumber following spray treatment
Procedure: A laboratory study was conducted at Long Grove, Ill. Cucumber (Cucumis sativa var. Straight Eight) seeds were sown in Pro-Mix® BX potting soil (Pro-Mix is a registered trademark of and available from Premier Horticulture Ltd.) and plants were grown in a CONVIRON® growth chamber at 25° C. under a 16:8 (light:dark) photoperiod. At 15 days post-sowing, plants were subjected to sprays with a portable Preval® paint sprayer. All spray solutions were made up in deionized water and a non-ionic surfactant was added to all spray solutions at 0.05% (v/v). At 48 hours post-spraying, plants were moved to a CONVIRON® growth chamber and subjected to a temperature of 4° C. for 48 hours under a 12:12 (light:dark) photoperiod. Upon removal from the cold chamber, plants were returned to a CONVIRON® growth chamber set at 25° C. under a 16:8 (light:dark) photoperiod. The plants were visually scored for chilling damage at 72 hours post-chilling. Each treatment was replicated seven times. […] Using the following formula, Applicant was able to determine that the response to the GB:(S)-ABA ratio was synergistic, in which a synergy factor is calculated by the […]: % Cexp=A+B−(AB/100), where % Cexp is the expected efficacy and “in which A and B are the increase in growth (or resistance to stress) levels given by the single [plant growth regulators]. If the ratio between the experimentally observed efficacy of the mixture Cobs and the expected efficacy of the mixture is greater than 1, synergistic interactions are present in the mixture” (Gisi, Synergistic Interaction of Fungicides in Mixtures, The American Phytopathological Society, 86:11, 1273-1279, 1996). To be conservative Applicant has set the minimum synergy factor to 1.1 throughout the Examples. Applicant determined synergy to be present at the following ratios of GB:(S)-ABA: 1:1 (synergy factor 3.74); 3.3:1 (synergy factor 2.68) and 10:1 (synergy factor 1.24).

[2] = tested on: Italian large leaf basil (Ocimum basilicum) seedlings; experiment: Chilling tolerance assay in basil seedlings (24-well plates)
Procedure: To determine the capacity of glycine betaine (“GB”) to confer thermo-tolerance, both singly and in combination with (S)-abscisic acid (“(S)-ABA”), chilling (i.e. cold) tolerance assays were performed using Italian large leaf basil (Ocimum basilicum) seedlings. Basil seeds were sterilized in an ethanol solution containing 0.16% Maxim® XL fungicide (Maxim is a registered trademark of and available from Syngenta Corporation). The sterilized seeds were germinated on ½×Murashige and Skoog Basal Salt Media, supplemented with 1× Gamborg's Vitamins and 0.6% Phytagar, and dispensed into 24-well plates. […]
After five days, concentrated solutions of GB and/or (S)-ABA were added as an overlay in 0.4% Phytagar. […] The seedlings were subjected to chilling stress for six days, after which time they were transferred back to the ambient temperature chamber, and scored after a six-day recovery period.
Individual wells contained indicated amounts of GB and/or (S)-ABA. […] GB was evaluated singly at concentrations of 0, 3,000, 10,000, 30,000, and 100,000 milligrams per liter (“mg/l”.) To test whether there was a synergistic interaction between GB and (S)-ABA, glycine betaine was added to the media at concentrations of 0, 1,000, 3,000, 10,000, and 30,000 mg/l, whereas (S)-ABA was held at a concentration of 3 mg/l. […]

Corn = experiment: Stomatal conductance of corn following spray; conditions: for % of Control Conductance 4 days: 4 days post-spray; for % of Control Conductance 3 days: 3 days post-spray
Procedure: A greenhouse study was conducted at Long Grove, Ill. Seeds of a commercial hybrid variety were sown in Pro-Mix® BX in three-liter pots. Greenhouses were kept at 25±3° C. under a 16:8 hour (light:dark) photoperiod, with illumination at canopy level of ˜250 μmoles m-2 s-1. Corn was typically fertigated with Peters 21-5-20+ micronutrients, calcium ammonium nitrate and magnesium sulfate. Typical growth rates for corn under these conditions ranged from 4 to 5 centimeters per day.
In this study, spray applications were made to corn at stage V4. These applications were made in a track sprayer outfitted with a 4001E Teejet® nozzle (Teejet is available from and a registered trademark of Spraying Systems Co., Glendale Heights, Ill., USA) and applied at 40 pounds per square inch and at 30 gallons/acre of spray solution. Following spray applications, plants were returned to the greenhouse.
At 3 and 4-days post spray application, stomatal conductance of the 4th true leaf was measured using a Licor Model 6400 XT photosynthesis meter (Licor, Lincoln, Neb.) used according to the manufacturer's directions. For ease of analysis, stomatal conductance values are expressed as a percent of control in Table 5 below.

Italian sweet basil [3] = experiment: Chilling damage of Italian sweet basil following spray treatment (Example 4)
Procedure: (§1) A laboratory study was conducted at Long Grove, Ill. Italian sweet basil seeds were sown in Pro-Mix® BX potting soil and plants were grown at room temperature under cool-white fluorescent lights under a 16:8 (light:dark) photoperiod. At 22 days post-sowing, plants were subjected to sprays with a portable Preval® paint sprayer. At 48 hours post-spraying, plants were moved to a CONVIRON® growth chamber and subjected to a temperature of 4° C. for 72 hours under a 12:12 (light:dark) photoperiod. Upon removal from the cold chamber, plants were returned to the laboratory and placed again under the cool-white fluorescent lamps until they were visually scored for chilling damage at 24 hours and 120 hours post-chilling. Each treatment was replicated seven times.

Italian sweet basil [4] = experiment: Chilling damage of Italian sweet basil following spray treatment (Example 3)
Procedure: as §1, with “the cool white” for “the cool-white”, “and 72” for “and 120”

[5] = single agent spray 300 mg/l, 72 hours post-chilling (4° C. 48 h)
[6] = single agent spray 300 mg/l, 4° C. 72 h

## CC1=CC(=O)CC(C)(C)[C@@]1(O)/C=C/C(C)=C/C(=O)O [(S)-ABA, (S)-abscisic acid]
[1]; [5]
  % Leaf Area Damaged: 52.9%
[2]; 20 ppm (S)-ABA alone (positive control)
  Chilling injury: “++” denotes little to no chilling injury; equivalent to 20 ppm (S)-ABA alone
Corn; single agent spray 100 mg/l
  % of Control Conductance 4 days: 91.8 % of Control
Corn; single agent spray 100 mg/l, corn stage V4, 4th true leaf
  % of Control Conductance 3 days: 81.3 % of Control
Corn; single agent spray 300 mg/l
  % of Control Conductance 3 days: 73.6 % of Control
  % of Control Conductance 4 days: 88.7 % of Control
Corn; single agent spray 1,000 mg/l
  % of Control Conductance 3 days: 76.5 % of Control
  % of Control Conductance 4 days: 95.9 % of Control
Corn; single agent spray 3,000 mg/l
  % of Control Conductance 3 days: 55.3 % of Control
  % of Control Conductance 4 days: 77.5 % of Control
Italian sweet basil [3]; single agent spray 300 mg/l
  % Leaf Area Damaged 120 h post-chilling: 41.00%
Italian sweet basil [3]; [6]
  % Leaf Area Damaged 24 h post-chilling: 23.00%
Italian sweet basil [3]; single agent spray 1,000 mg/l
  % Leaf Area Damaged 24 h post-chilling: 11.67%
  % Leaf Area Damaged 120 h post-chilling: 21.67%
Italian sweet basil [4]; single agent spray 300 mg/l
  % Leaf Area Damaged 72 h post-chilling: 27%
Italian sweet basil [4]; [6]
  % Leaf Area Damaged 24 h post-chilling: 12%
Italian sweet basil [4]; single agent spray 1,000 mg/l
  % Leaf Area Damaged 24 h post-chilling: 6%
  % Leaf Area Damaged 72 h post-chilling: 14%

## C[N+](C)(C)CC(=O)[O-] [GB, Glycine betaine]
[1]; [5]
  % Leaf Area Damaged: 84.3%
[1]; single agent spray 1,000 mg/l, 72 hours post-chilling
  % Leaf Area Damaged: 82.1%
[1]; single agent spray 3,000 mg/l, 72 hours post-chilling
  % Leaf Area Damaged: 46.4%
[2]; 30,000 mg/l GB alone
  Protection against chilling injury: equivalent protection as ˜20 mg/l (S)-ABA
Corn; single agent spray 1,000 mg/l
  % of Control Conductance 3 days: 86.2 % of Control
  % of Control Conductance 4 days: 97.9 % of Control
Italian sweet basil [3]; single agent spray 10,000 mg/l
  % Leaf Area Damaged 24 h post-chilling: 39.17%
  % Leaf Area Damaged 120 h post-chilling: 56.67%
Italian sweet basil [3]; single agent spray 30,000 mg/l
  % Leaf Area Damaged 24 h post-chilling: 40.00%
  % Leaf Area Damaged 120 h post-chilling: 50.00%
Italian sweet basil [4]; single agent spray 3,000 mg/l
  % Leaf Area Damaged 24 h post-chilling: 67%
  % Leaf Area Damaged 72 h post-chilling: 79%
Italian sweet basil [4]; single agent spray 20,000 mg/l
  % Leaf Area Damaged 24 h post-chilling: 45%
  % Leaf Area Damaged 72 h post-chilling: 65%
